Here are results for five compounds from patent US20050159364A1, “Copper antagonist compounds” (priority 2003, published 2005).

Values joined by “and” are separate entries in the source; they are usually repeats but may differ in a detail not shown here. Equal values may be shown once. “Also recorded” adds a separate entry of the source. Where a name gives a salt, the structure may show the parent alone. Read-outs that look alike come from different tables or passages of the source. Marks after values point to notes of the source that are not given here.

For data set [1] the following is noted: 0.9% saline, 0.67-670 mg/ml, four months at 4° C. How it is done: The concentrations of the stock formulations were:0.67 mg/ml, 6.7 mg/ml, 67 mg/ml, and 670 mg/ml. The formulation was then administered to the rats in doses of 0.1 mg/kg, 1 mg/kg, 10 mg/kg, and 100 mg/kg to the animals respectively.
The test system of data set [2] is STZ-treated and non-STZ-treated rats. As to conditions: for Serum Cu: trientine i.v. 0.1-100 mg.kg^−1 hourly, terminal sample; for Serum Fe: trientine i.v. The source says: All animals were fasted overnight prior to surgery but continued to have ad libitum access to deionized water. […] The femoral artery and vein were cannulated with a solid-state blood pressure transducer (Mikrotip™ 1.4F, Millar Instruments, Texas, USA) and a saline filled PE 50 catheter respectively. The ureters were exposed via a midline abdominal incision, cannulated using polyethylene catheters (external diameter 0.9 mm, internal diameter 0.5 mm) and the wound sutured closed. The trachea was cannulated and the animal ventilated at 70-80 breaths.min^−1 with air supplemented with O2 (Pressure Controlled Ventilator, Kent Scientific, Conn., USA). The respiratory rate and end-tidal pressure (10-15 cmH2O) were adjusted to maintain end-tidal CO2 at 35-40 mmHg (SC-300 CO2 Monitor, Pryon Corporation, Wisconsin, USA). Body temperature was maintained at 37° C. throughout surgery and the experiment by a heating pad. Estimated fluid loss was replaced with intravenous administration of 154 mmol.l^−1 NaCl solution at a rate of 5 ml.kg^−1.h^−1.
(§1) Following surgery and a 20 min stabilization period, the experimental protocol was started. […] Control animals received an equivalent volume of saline. Urine was collected in 15 min aliquots throughout the experiment in pre-weighed polyethylene epindorf tubes. At the end of the experiment a terminal blood sample was taken by cardiac puncture and the separated serum stored at −80° C. until future analysis. Hearts were removed through a rapid mid-sternal thoracotomy and processed as described below.
Urine and tissue analysis was carried out as follows. Instrumentation:A Perkin Elmer (PE) Model 3100 Atomic Absorption Spectrophotometer equipped with a PE HGA-600 Graphite Furnace and PE AS-60 Furnace Autosampler was used for Cu and Fe determninations in urine. Deuterium background correction was employed. A Cu or Fe hollow-cathode lamp (Perkin Elmer Corporation) was used and operated at either 10 W (Cu) or 15 W (Fe). The 324.8 nm atomic line was used for Cu and the 248.3 nm atomic line for Fe. The slit width for both Cu and Fe was 0.7 nm. Pyrolytically coated graphite tubes were used for all analyses. The injection volume was 20 μL. A typical graphite furnace temperature program is shown below:
Sample pretreatment was carried out as follows. Urine:Urine was collected in pre-weighed 1.5 ml micro test tubes (eppendorf). After reweighing, the urine specimens were centrifuged and the supernatant diluted 25:1 with 0.02 M 69% Aristar grade HNO3. The sample was stored at 4° C. prior to GF-AAS analysis. If it was necessary to store a sample for a period in excess of 2 weeks, it was frozen and kept at −20° C. Serum:Terminal blood samples were centrifuged and serum treated and stored as per urine until analysis. From the trace metal content of serum from the terminal blood sample and urine collected over the final hour of the experiment, renal clearance was calculated using the following equation: [formula]

Data set [3] has the same test system. Conditions: highest dose 100 mg/kg i.v., 2 min following administration. How it is done:
as §1
Mean arterial pressure (MAP), heart rate (HR, derived from the MAP waveform) oxygen saturation (Nonin 8600V Pulse Oximeter, Nonin Medical Inc., Minnesota, USA) and core body temperature, were all continuously monitored throughout the experiment using a PowerLab/16s data acquisition module (AD Instruments, Australia).
Following surgery and a 20 min stabilization period, the experimental protocol was started. […] Urine was collected throughout the experiment in 15 min aliquots.

For data set [4] the test system is unchanged. As to conditions: for Cu content of heart tissue / Fe content of heart tissue: mean ± SEM. How it is done: Methods were carried out as follows. Spectrophotometric analysis was conducted as described in Example 2. Cu, Fe and Zn in tissue digests were determined at Hill Laboratories (Hamilton, New Zealand) using either a PE Sciex Elan-6000 or PE Sciex Elan-6100 DRC ICP-MS.
Sample pre-treatment was carried out as follows. Heart:Following removal from the animal, the heart was cleaned of excess tissue, rinsed in buffer to remove excess blood, blotted dry and a wet ventricular weight recorded. Using titanium instruments a segment of left ventricular muscle was dissected and placed in a pre-weighed 5.0 ml polystyrene tube. The sample was freeze-dried overnight to constant weight before 0.45 ml of 69% Aristar grade HNO3 was added. The sample tube was heated in a water bath at 65° C. for 60 minutes. The sample was brought to 4.5 ml with Milli-Q H2O. The resulting solution was diluted 2:1 in order to reduce the HNO3 concentration below the maximum permitted for ICP-MS analysis.

Data set [5] concerns male humans with T2DM and matched non-diabetic controls. The source says: Methods were as follows. Human studies were approved by institutional ethics and regulatory committees. We measured urinary metal excretion in human males with T2DM or matched non-diabetic controls, baseline information on which is shown in Table 9, in a randomized, double blind, placebo-controlled trial. Males with uncomplicated T2DM (Table 9) underwent 12-d elemental balance studies in a fully residential metabolic unit. All foods and beverages were provided. Total daily intake (method of double diets) and excretion (urinary and fecal) of trace elements (Ca, Mg, Zn, Fe, Cu, Mn, Mo, Cr and Se) were determined (ICP MS).

Data set [6] deals with humans with T2DM or matched controls. Conditions: for Mean CU Losses, fecal, Post-Tment: n = 10, oral 2.4 g once daily. How it is done:
Total metal balance studies were performed in a residential metabolic unit. Total fecal outputs were collected daily for 12 days, freeze dried, and analyzed by ICP-MS for content of Cu, Fe, Zn, Ca, Mg, Mn, Cr, […] and Se.

The conditions of data set [7]: 15 days. How it is done: One sample of the solution was stored in the dark at 4° C. and 21° C. in the dark and a third sample was stored at 21° C. in daylight.
The Ultraviolet-visible spectrum of the formulation was initially measured at day 0 and then at day 15. 20 μl aliquots of sample solutions were taken at day 15. For each aliquot 960 μl of 50 mM TRIS buffer and 20 μl aliquot of Copper Nitrate standard (100 mM—Orion Research Inc) were added.

The test system of data set [8] is Tg2576 transgenic mice. As to conditions: oral treatment, nine weeks for clioquinol; cited from earlier work.
Data set [9] relates to STZ-treated and normal rats. Nature of the data set: Isolated working heart function after 7 weeks oral trientine.
In data set [10] the test system is STZ-treated and non-STZ-treated rats. Kind of data set: Left ventricular histology by LCM and TEM after oral trientine.
The test system of data set [11] is humans with T2DM. Kind of data set: 6-month double-blind placebo-controlled oral trientine trial, LV mass by cardiac MRI.
From the text: Subjects (30-70 y) who provided written informed consent were eligible for inclusion if they had:T2DM with HbA1c>7%; cardiac ejection fraction (echocardiography)≧45% with evidence of diastolic dysfunction but no regional wall-motion anomalies; no new medications for more than 6 months with no change of β-blocker dose; normal electrocardiogram (sinus rhythm, normal PR Interval, normal T wave and QRS configuration, and isoelectric ST segment); and greater than 90% compliance with single-blinded placebo therapy during a 2-w run-in period. Women were required to be post-menopausal, surgically sterile, or non-lactating and non-pregnant and using adequate contraception.
Before randomization, potentially eligible subjects entered a 4-w single blind run-in phase of two placebo-capsules twice-daily and underwent screening echocardiography, being excluded if regional wall motion abnormalities or impaired LV systolic function (ejection fraction <50%) were detected. In addition, LV diastolic filling was assessed using mitral inflow Doppler (with pre-load reduction) to ensure patients had abnormalities of diastolic filling; no patient with normal mitral filling proceeded to randomisation. […] The double-blind treatment was continued for 6 months in each subject.
At baseline and following 6 months' treatment, LV mass was determined using cardiac MRI, performed in the supine position with the same 1.5 T scanner (Siemens Vision) using a phased array surface coil. Prospectively gated cardiac cine images were acquired in 6 short axis and 3 long axis slices with the use of a segmented k-space pulse sequence (TR 8 ms; TE 5 ms; flip angle 10°; field of view 280-350 mm) with view sharing (11-19 frames.slice^−1). Each slice was obtained during a breath-hold of 15-19 heartbeats. The short axis slices spanned the left ventricle from apex to base with a slice thickness of 8 mm and inter-slice gap of 2-6 mm. The long axis slices were positioned at equal 60° intervals about the long axis of the LV. […] LV-mass and volume were calculated using guide point modeling, which produces precise and accurate estimations of mass and volume. Briefly, a three dimensional mathematical model of the LV was interactively fitted to the epicardial and endocardial boundaries of the LV wall in each slice of the study, simultaneously. Volume and mass were then calculated from the model by numerical integration (mass=wall volume×1.05 g.ml^−1). All measurements were performed by 1 measurer at the end of six months' data collection. Outcome analyses were conducted by intention-to-treat, using a maximum likelihood approach to impute missing at random data within a mixed model, and marginal least-squares adjusted-means were determined. Changes from baseline were compared between treatment-groups in the mixed model with baseline values entered as covariate. Since there were only 2 groups in the main effect and no interaction effect, no post hoc procedures were employed. In additional analysis the influence of clinically important differences between the treatment groups at baseline was considered by adjusting for them as covariates in an additional model. All P values were calculated from 2-tailed tests of statistical significance and a 5% significance level was maintained throughout. The effect of treatment on categorical variables was tested using the procedures of Mantel and Haenzel (SAS v8.01, SAS Institute).
Data set [12] concerns Male Wistar rats. Kind of data set: Effects of streptozotocin (STZ) treatment in rats. It is filed as in vivo, rat. An excerpt:
Male Wistar rats (n=28, 303±2.9 g) were divided randomly into STZ-treated and non-treated groups. […] Non-treated animals received an equivalent volume of saline. […] Blood glucose and body weight were measure at day 3 following STZ/saline injection and then weekly throughout the study.

Setting [13] is: STZ-treated and non-STZ-treated rats.
[14] abbreviates: STZ-treated rats, oral trientine 7 weeks.
[15] abbreviates: STZ-treated animals n = 14, mean ± SEM.

Take `NCCNCCNCCN` [trientine hydrochloride]: in data set [1] (hydrochloride), the “Stability of stock solutions on storage (copper chelation efficacy)” value is “without appreciable deterioration in efficacy”.
Turning to `NCCNCCNCCN` [trientine], the “Urine excretion versus saline” value in data set [2] (100 mg.kg^−1 dose, non-STZ-treated rats) was “increased urine excretion”. Also, in data set [2] (setting [13]), the “Total copper excreted over the entire duration of the experiment versus saline controls” value is “significantly increased” and the “Urinary iron excretion versus saline” value is listed as “not increased”. Besides, in data set [2] (STZ-treated rats, n = 6), the “Serum Cu” value turned out to be 7.56 ± 0.06 μg · μl^−1 × 10^−4 and the “Serum Fe” value is recorded as 35.7 ± 7.98 μg · μl^−1 × 10^−4. For the same compound, the “Urinary Cu excretion versus equivalent volume of saline” value in data set [2] (all doses 0.1, 1.0, 10, 100 mg.kg^−1 i.v., STZ-treated and non-STZ-treated rats) is recorded as “excreted more Cu”. Further, the “Urinary copper excretion per gram of bodyweight, STZ-treated versus non-STZ-treated” value in data set [2] (following trientine administration) was “greater per gram of bodyweight in STZ-treated”. Further, in [2] (non-STZ-treated rats, n = 4), the “Serum Cu” value was determined as 7.11 ± 0.41 μg · μl^−1 × 10^−4 and the “Serum Fe” value turned out to be 33.6 ± 1.62 μg · μl^−1 × 10^−4. In data set [3], the “Maximum decrease of mean arterial pressure (MAP)” value was 19±4 mmHg and 19+/−4 mmHg. Moreover, in [4] (STZ-treated rats), the “Cu content of heart tissue” value is on record as 24.7 ± 1.5 μg · g^−1 dry tissue and the “Fe content of heart tissue” value came to 186 ± 46 μg · g^−1 dry tissue. Also, the “Effect on copper content of cardiac tissue” value in data set [4] (acute i.v. increasing doses, normal and STZ-treated rats) was “no significant effect”. In [4] (non-STZ-treated rats), the “Cu content of heart tissue” value is given as 27.1 ± 1.0 μg · g^−1 dry tissue and the “Fe content of heart tissue” value is 235 ± 39 μg · g^−1 dry tissue. Also, the “Mean trientine-evoked urinary Cu-excretion” value in data set [5] (T2DM, oral 2.4 g once-daily) came out at 5.8 µmol/day. The “Urinary Cu, diabetic and control groups” value in data set [5] (day 7, oral 2.4 g) was “increased urinary Cu in both groups”. The “Mean trientine-evoked urinary Cu-excretion” value in data set [5] (non-diabetic controls, oral 2.4 g once-daily) stood at 4.1 µmol/day. Besides, in data set [5] (oral 2.4 g once-daily), the “Increase of trientine-evoked urinary Cu-excretion in T2DM compared to non-diabetic controls” value came out at 40% and the “Trientine-evoked urinary Fe excretion” value is listed as “no corresponding increase”. Besides, the “Urinary Cu excretion, trientine-treated T2DM versus trientine-treated non-diabetic controls” value in data set [5] (single 2.4-g oral dose, day 7, P<0.05) is “significantly greater”. Besides, the “Mean CU Losses, fecal, Post-Tment” value in data set [6] (control) is listed as 2.045 mg/day. In addition, the “Mean CU Losses, fecal, Post-Tment” value in data set [6] (diabetic) came out at 1.965 mg/day. The “Effect on fecal outputs of Zn, Fe, Ca, Mg, Mn, Cr, Mb or Se” value in data set [6] (oral 2.4 g once daily) is reported as “Neither diabetes nor trientine had measurable effects”. Also, the “Stability of stock solutions on storage (copper chelation efficacy)” value in [1] was “remains active as a copper chelator”. Further, in data set [7] (100 mM in deionized water, 4° C. dark, 21° C. dark, 21° C. daylight), the “Change in ability to chelate copper on storage” value is “no detectable change”. Further, in data set [7] (100 mM solution, 21° C., daylight), the “Effect of room light on copper chelation” value is “no detectable detrimental effect”. Besides, in [8], the “Brain Aβ / amyloid deposition” value is “did not inhibit amyloid deposition”. For the same compound, in [9] (setting [14]), the “Cardiac function versus untreated STZ-treated controls” value is “improved cardiac function” and the “Cardiac output with increasing pre-load, after-load constant” value is recorded as “restored to Sham values”. For the same compound, in data set [9] (increasing after-load, constant pre-load), the “Trientine treated STZ-treated hearts still functioning when 50% of untreated STZ-treated hearts had failed” value is “about 90%”. Besides, the “Effect on cardiac performance of normal animals” value in data set [9] (non-STZ-treated rats, oral trientine 7 weeks) is “no adverse effects on cardiac performance”. The “Blood glucose profile versus untreated comparison group” value in [9] (oral trientine in drinking water weeks 7-13) was “made no difference”. In addition, in [9] (oral trientine weeks 7-13 versus untreated STZ), the “heart:body weight ratio in STZ-treated animals” value was “small but significant improvement”. For the same compound, the “Myocardium of trientine-treated non-STZ-treated rats” value in data set [10] is reported as “appeared normal”. Moreover, the “Myocardial (LV) histology in STZ-treated rats” value in data set [10] (7 weeks oral trientine) is recorded as “improved; also recorded: substantive recovery of LV structure”. Moreover, the “Adverse events during 6 months' therapy” value in data set [11] (600 mg twice-daily oral) is recorded as “No significant trientine-related adverse events”. In addition, in data set [11] (6 months − baseline, mean), the “Δ diastolic blood pressure” value is −3.9 mmHg, the “Δ systolic blood pressure” value is −3.5 mmHg and the Δ urinary copper is -0.83 µmol/L. The “Δ left ventricular mass/body surface area” value in data set [11] (6 months − baseline, mean, P<0.01 vs. placebo) is listed as −5.56** g · m^−2. In data set [11] (diabetics, 600 mg twice-daily oral, 6 months), the “Decrease of mean LV mass” value was 5%.
As to `NCCNCCNCCN` [trientine dihydrochloride], the “Cu excretion in urine versus saline at lowest dose” value in data set [2] (0.1 mg.kg^−1 parenteral, rats) is on record as “significantly increased”. Also, in [6] (normal humans and those with T2DM, dihydrochloride), the “Effect on fecal Cu output” value is recorded as “does not result in increased excretion of copper in the feces”.
Regarding `CN(N=O)C(=O)N[C@H]1C(O)O[C@H](CO)[C@@H](O)[C@@H]1O` (mixture of isomers) [STZ, streptozotocin], the Daily food consumption result in [12] (STZ 55 mg.kg^−1 i.v., n = 14, mean ± SEM) is listed as “*58 ± 1 g”. Further, the “Heart rate (HR), control period prior to infusion” value in [12] (STZ-treated anaesthetized rats) turned out to be 287±11 bpm. In data set [12] (setting [15]), the Heart weight/body weight result was “*2.93 ± 0.05 mg · g^−1” and the Wet heart weight entry is “*0.78 ± 0.02 g”.
In the case of `Oc1c(I)cc(Cl)c2cccnc12` [clioquinol], in data set [8], the “Brain Aβ / amyloid deposition” value is reported as “decrease in brain Aβ deposition”.
